SMILES strings stand for the structures.

The nature of this data set: gradient 5% acetonitrile 3 min, to 50% in 2 min, to 85% in 15 min, held 3 min, 100 µL/min. The following applies: column: Zorbax Extend-C18 2.1 x 50 mm; eluents: water / acetonitrile, 0.1% formic acid. A digest of the protocol: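 The mobile phases were water and acetonitrile, each with 0.1% formic acid, pumped at 100 μL/min through a Zorbax Extend-C18 column (2.1 × 50 mm, 1.8 μm). Pure standards were injected as mixtures of ~100 molecules and detected by a quadrupole time-of-flight mass spectrometer in positive and negative ionization mode. Retention time came from computationally picked adduct peaks, each inspected by hand.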
Molecule `CSc1ccccc1-c1nnc(NC(=O)c2cc(Cl)sc2Cl)o1` registered an RP-LC retention time of 937 s.

Consider `COCCn1c(CCCC(=O)NCc2ccccn2)nc2cccnc21`, for which the RP-LC retention time was 545 s.

Regarding `Cc1cc(C)cc(S(=O)(=O)N2CCN(CCc3cn(C)c4ncccc34)CC2)c1`, the RP-LC retention time is 652 s.

`c1cc(CN2CCCCC2c2nncn2CC2CC2)co1` (centres undefined) yielded an RP-LC retention time of 561 s.

`COc1ccc(C(=O)N2CCC(c3noc(-c4cnccn4)n3)C2)cn1` (centres undefined) showed an RP-LC retention time of 790 s.

The molecule `CCOCCCNC(=O)N1CCN(Cc2nc3cccnc3n2-c2cc(C)cc(C)c2)CC1` yielded an RP-LC retention time of 653 s.

`O=C(C1CCN(Cc2cc3ccccc3n2Cc2ccccc2)CC1)N1CCCCC1`: the RP-LC retention time was determined as 757 s.

`COc1ccc(Nc2ccc3c(=O)c(-c4ccccc4OC)c(C)oc3c2)cc1` showed an RP-LC retention time of 947 s.

`CC(C)c1cccc(NC(=O)Cn2cnc3nc(N4CCCC(C(=O)NC5CC5)C4)sc3c2=O)c1` (centres undefined): the RP-LC retention time was found to be 723 s.

`CS(=O)(=O)N1CC(F)(F)C[C@H]1c1nc(-c2ccncc2)no1` gave an RP-LC retention time of 693 s.

In turn, `COc1ccc(CN(C)Cc2cc(=O)c3cc(C)ccc3[nH]2)cc1` yielded an RP-LC retention time of 603 s.

The molecule `O=C(CCc1nnn2c1CN(C(=O)c1nccc3ccccc13)CC2)N1CCCC1` yielded an RP-LC retention time of 625 s.

For `CCOC(=O)c1[nH]c(C)c(C(=O)C(C)N(CCOC)C(=O)c2ccccc2Cl)c1C` (centres undefined), the RP-LC retention time was 820 s.

As for `COc1ccc(OC)c2[nH]c(C(=O)N[C@H](C(=O)O)c3ccccc3)cc12`, the RP-LC retention time was 891 s.

In the case of `CCOC(=O)c1c(C)[nH]c(CCC(=O)NCc2cccs2)c1C`, the RP-LC retention time worked out at 746 s.

For `COc1ccc(CN2N=C(C(=O)N3CCOCC3)S(=O)(=O)c3ccccc32)cc1F`, the RP-LC retention time was determined as 807 s.

`Cc1noc2ncn(CC(=O)Nc3ccc(F)cc3)c(=O)c12` returned an RP-LC retention time of 735 s.

The molecule `COC(=O)c1cccc(-c2nc(-c3nnn(Cc4ccccc4)c3C)no2)c1` showed an RP-LC retention time of 1010 s.

`CC(C(=O)O)c1ccc(N2Cc3ccccc3C2=O)cc1` (centres undefined) gave an RP-LC retention time of 828 s.

The molecule `O=C(NC1CCCCCC1)C1CC(=O)N(CCc2c[nH]c3ccc(Cl)cc23)C1` (centres undefined) registered an RP-LC retention time of 871 s.

Molecule `COc1ccc(OCC(=O)Nc2ccc3c(c2)N(C(=O)C(C)C)CCC3)cc1` had an RP-LC retention time of 897 s.

For `Cn1nccc1-c1cccc(-c2noc(-c3cccc(Br)c3)n2)c1`, the RP-LC retention time amounted to 1300 s.

In turn, `Cn1cc(-c2ccc(F)cc2)cc1C(=O)NC1CC1` gave an RP-LC retention time of 847 s.

The molecule `CCOc1ccccc1NC(=O)CSc1cc(N2CCN(c3ccc(OC)cc3)CC2)ncn1` showed an RP-LC retention time of 1090 s.

In turn, `O=C(CCc1csc(NC(=O)c2cccs2)n1)NCCc1c[nH]c2ccccc12` gave an RP-LC retention time of 755 s.

In turn, `COc1ccccc1CCNS(=O)(=O)c1cc2c3c(c1)CCC(=O)N3CCC2` came in with an RP-LC retention time of 882 s.

For `CCCc1cc(C2CCCN2C(=O)Nc2ccc(C(=O)OC)cc2)no1` (centres undefined), the RP-LC retention time worked out at 807 s.

On to `COc1ccc(C2c3c(n(C)c4ccccc34)C(=O)N2CC(=O)N2CCN(c3ccccn3)CC2)cc1` (centres undefined), for which the RP-LC retention time stood at 710 s.

For the molecule `CSc1cccc(NC(=O)N2CCC(c3nc(C(=O)N4CCCCC4)c(C)o3)CC2)c1`, the RP-LC retention time was determined as 828 s.

In the case of `COc1ccc(C(=O)Nc2c(-c3ccc(F)cc3)nc3ccccn23)cc1OC`, the RP-LC retention time is 625 s.

Molecule `CCN1CCN(Cc2ccc(NC(=O)c3ccc(C)c(NC(=O)c4cncc(-c5cccs5)c4)c3)cc2C(F)(F)F)CC1` gave an RP-LC retention time of 844 s.

In turn, `COc1ccc(-c2c(C)noc2NC(C)=O)cc1S(=O)(=O)Nc1ccc(C#N)cc1` showed an RP-LC retention time of 710 s.

Molecule `O=C(NCc1ccc(F)cc1Cl)C1CCN(c2cncnc2N2CCCC2)CC1` registered an RP-LC retention time of 665 s.

Consider `CCn1cc2c3c(cccc31)CN(C(=O)CCc1ccccc1)CC2`, for which the RP-LC retention time came out at 1050 s.

Consider `O=C(NC1CCN(c2cc(-c3ccc(Cl)cc3)[nH]n2)C1)c1ccc2[nH]ccc2c1` (centres undefined), for which the RP-LC retention time was 742 s.

Take `CC(Oc1ccccc1)C(=O)N(C)CCc1noc(-c2ccccc2)n1` (centres undefined): the RP-LC retention time turned out to be 903 s.

`O=C(NCCCN1CCN(Cc2ccccc2)CC1)c1sc2ncccc2c1-n1cccc1` registered an RP-LC retention time of 646 s.

`O=C(CSCc1ccccc1)Nc1cccc(-c2cn3cccnc3n2)c1` gave an RP-LC retention time of 640 s.

`CCOc1ccccc1-c1noc(Cn2cnc3c(cnn3-c3ccccc3)c2=O)n1` displayed an RP-LC retention time of 990 s.

In turn, `Cc1sc(NC(=O)c2ccc(F)cc2)nc1-c1ccc2c(c1)NC(=O)CO2` displayed an RP-LC retention time of 872 s.

The molecule `O=C(NCc1cscn1)C1CCN(S(=O)(=O)c2cccc(Cl)c2)CC1` returned an RP-LC retention time of 747 s.

Molecule `CC(C)Cn1c(CCNC(=O)c2ccc(F)cc2)nc2cccnc21` yielded an RP-LC retention time of 700 s.

For `CCc1nc(-c2ccc(-c3noc(C(C)NC(=O)c4ccco4)n3)cc2)cs1` (centres undefined), the RP-LC retention time stood at 980 s.

Take `CCOc1ccc(-c2[nH]ncc2CNS(=O)(=O)c2ccccc2CC)cc1`: the RP-LC retention time was 884 s.

In turn, `CC(C)c1cc(N2CCN(C(=O)c3ccc4c(c3)OCO4)CC2)nc2nncn12` registered an RP-LC retention time of 610 s.

As for `COc1ccc(-c2nnc(Cc3nc(-c4ccc(C)c(C)c4)no3)o2)cc1`, the RP-LC retention time was found to be 1110 s.

`Cc1c(CNCc2ccco2)c(C(=O)O)c(C)n1Cc1ccccc1Cl` came in with an RP-LC retention time of 720 s.

The molecule `Cc1nc(N2CCOCC2)cc(N2CCN(C(=O)c3ccc(Br)o3)CC2)n1` came in with an RP-LC retention time of 619 s.

For the molecule `COc1cc(-c2noc(CCn3nc(-c4ccc(F)cc4)ccc3=O)n2)cc(OC)c1OC`, the RP-LC retention time turned out to be 887 s.

`CCOC(=O)CNC(=O)NC1CCN(C2=NS(=O)(=O)C(c3ccc(C)cc3)=C2C)CC1`: the RP-LC retention time was 743 s.

`O=C(NCCCN1CCC(Cc2ccccc2)CC1)C1CCCN(S(=O)(=O)N2CCOCC2)C1` (centres undefined) gave an RP-LC retention time of 660 s.

For the molecule `Cc1ccc(-c2nc(C(=O)N(C)C)c3n2CCCCC3)cc1`, the RP-LC retention time is 640 s.

Consider `O=S(=O)(c1ccc2c(c1)-c1oncc1CO2)N1CCN(c2ccccc2)CC1`, for which the RP-LC retention time is 1030 s.

For the molecule `CCCS(=O)(=O)N1CCC(Oc2nccnc2N2CCOCC2)C1` (centres undefined), the RP-LC retention time came out at 761 s.

For the molecule `CC(C)CNC(=O)c1nc(-c2ccnc(N3CCC(C)CC3)c2)no1`, the RP-LC retention time worked out at 814 s.

Consider `COc1cc2nccc(Oc3ccc(NC(=O)Nc4ccc(F)cc4F)c(F)c3)c2cc1OC`, for which the RP-LC retention time is 782 s.

As to `COc1ccc(NC(=O)NCCn2c(C)nc3ccccc32)c(OC)c1`, the RP-LC retention time was 604 s.

The molecule `CCC(C)Nc1nc(-c2ccc(OC)cc2)nc2ccccc12` (centres undefined) yielded an RP-LC retention time of 800 s.

As for `Cc1nc(-c2ccc3c(c2)CCN3C(=O)Cc2c[nH]c3ccccc23)cs1`, the RP-LC retention time came out at 950 s.

For the molecule `COC(=O)c1sccc1S(=O)(=O)Nc1ccc(CC(=O)N2CCC(O)CC2)cc1`, the RP-LC retention time worked out at 882 s.

In the case of `CCNC(=O)c1cc(N(C)C)nc2c(Cl)cccc12`, the RP-LC retention time stood at 730 s.

`CC(C)CCNS(=O)(=O)c1ccccc1-c1nc(-c2ccccc2)no1`: the RP-LC retention time worked out at 1240 s.

As to `O=C(Nc1cc(-c2cccs2)no1)C1(c2ccccc2)CC1`, the RP-LC retention time was determined as 1050 s.

In turn, `Cc1ccc(-c2noc(C3CCCN3S(=O)(=O)c3ccc(C(C)(C)C)cc3)n2)cc1` (centres undefined) returned an RP-LC retention time of 788 s.

For `COc1cccc(S(=O)(=O)N2CCC3(CC2)N(c2ccccc2)C(=O)CS3=O)c1` (centres undefined), the RP-LC retention time was 737 s.

For the molecule `O=C(NCc1cccc(C(F)(F)F)c1)c1ccc2c(c1)ncn2CCN1CCCC1`, the RP-LC retention time worked out at 618 s.

Turning to `COc1ccccc1-c1nc(C2CCN(C(=O)c3cc4cc(Cl)ccc4[nH]3)CC2)no1`, the RP-LC retention time came to 1030 s.

`COc1ccc(CC(=O)Nc2ccc(-c3cn4ccc(C)nc4n3)cc2)cc1` showed an RP-LC retention time of 639 s.

In turn, `COCCOC1CCC12CCN(S(=O)(=O)c1ccccc1C)CC2` (centres undefined) showed an RP-LC retention time of 983 s.

Turning to `CCn1c(=O)c(N2CCN(C(=O)Nc3cccc(Br)c3)CC2)nc2cccnc21`, the RP-LC retention time is 1030 s.

`Cc1cccc(C(=O)N2N=C(c3ccco3)CC2c2cccs2)c1` (centres undefined) showed an RP-LC retention time of 940 s.

In the case of `O=C(N[C@H](Cc1ccccc1)C(=O)NCc1cscn1)c1ccccc1`, the RP-LC retention time came out at 738 s.

`Cc1cc(Cl)ccc1S(=O)(=O)N1CCc2nn(CC(C)C)c(=O)n2CC1` gave an RP-LC retention time of 919 s.

`CC(=O)N1CCN(Cc2nc(-c3ccc(N4CCCC(C)C4)nc3)no2)CC1` (centres undefined): the RP-LC retention time is 669 s.

The molecule `CCNc1ncnc2sc3c(c12)CCN(C(=O)CCOC)C3` returned an RP-LC retention time of 610 s.

The molecule `Cc1[nH]c(C(=O)N2CCCC(C(=O)NC(c3cccs3)C(C)C)C2)c(C)c1C(=O)OC(C)C` (centres undefined) came in with an RP-LC retention time of 987 s.

The molecule `CCOC(=O)c1nc(N2CCN(c3ccccn3)CC2)c2ccccc2n1` showed an RP-LC retention time of 580 s.

Turning to `COc1cc(NC(=O)C2CCCN(C(=O)c3cc(-c4ccncc4)n[nH]3)C2)cc(OC)c1OC` (centres undefined), the RP-LC retention time was found to be 591 s.

Turning to `CSc1cccc(NC(=O)C(=O)NCC(c2ccc3c(c2)CCCN3C)N2CCCC2)c1` (centres undefined), the RP-LC retention time was 640 s.

(Values after the METLIN SMRT retention time set (Domingo-Almenara et al. 2019).)
